Data: patent publication US20080293686A1, “SEMI-SOLID SYSTEMS CONTAINING AZETIDINE DERIVATIVES” (AVENTIS PHARMA S.A., priority 2003, published 2008)
Values after ≈ are worked out from the molar mass of the structure shown.

Legend:
[1] = Colloidal stability and self-emulsifying properties after incubation with simulated gastrointestinal fluids and filtration; assay type: physicochemical; conditions: diluted 1:50, 2 hours at 37° C., theoretical concentration 200 μg/ml
Method: The following simulated media were selected for the present experiment: • Gastric medium USP, pH 1.2 • Fasted intestinal medium, pH 6.8 (ref. Dressman et al., Pharm. Res., 1998) • Fed intestinal medium, pH 5 (ref. Dressman et al., Pharm. Res., 1998)
All Compound (Ic) formulations (400 mg) were diluted 1:50 in the gastric, fasted intestinal or fed intestinal medium (20 ml), then incubated during 2 hours at 37° C. under mechanical stirring (300 rpm). The drug concentration was determined by HPLC before and after filtration (2 μm).
The aim of this second part of the study was to evaluate the colloidal stability and the self-emulsifying properties of the emulsion/microemulsion/micellar solution of the (Ic) formulation after incubation in the GI media. Thus, the sample was filtered onto 2 μm (able to retain oil droplets >2 μm, as well as drug crystals >2 μm) then dosed by HPLC. The filter size (2 μm) has been chosen after a screening with different filter sizes (0.45, 2 and 5 μm) tested on the aqueous solution of the drug. […] In summary, the filtered fraction was approximately 1% in the gastric medium, 2% in the fasted intestinal medium, 4.5-5.5% in the fed intestinal medium.

[2] = Solubility of compound (Ic) in lipids and other pharmaceutical cosolvents; assay type: physicochemical; conditions: in Soyabean oil
Description: The first step was to determine the solubility of compound (Ic) in an exhaustive series of lipids and other pharmaceutical cosolvents including vegetable oils, lipidic components, surfactants, hydrophilic components and phospholipids. The protocol of the solubility measurement is reported in the annex.

Compound (Ic) recovered after filtration (2 μm) after previous incubation with GI media ([1]; Fasted intestinal pH 6.8): 4.2 µg/mL
Compound (Ic) recovered after filtration (2 μm) after previous incubation with GI media ([1]; Fed intestinal pH 5): 8.8 µg/mL
Compound (Ic) recovered after filtration (2 μm) after previous incubation with GI media ([1]; Gastric medium): 1.9 µg/mL
solubility [2]: 31.8 mg/mL (≈ 64.3 mM)
Compound: CS(=O)(=O)C(=C1CN(C(c2ccc(Cl)cc2)c2ccc(Cl)cc2)C1)c1cc(F)cc(F)c1 [Compound (Ic)]
